Measured values published in article PMC4163472, “Crystal Structure of Deinococcus radiodurans RecQ Helicase Catalytic Core Domain: The Interdomain Flexibility” (BioMed Research International, 2014).

Target: T1, DrRecQ helicase catalytic core (Deinococcus radiodurans, UniProt Q9RUU2)
T1 construct: gene DR_1289; residues 5-517 seen in the complex (296-300 not visible); monomer
T1 sequence (Q9RUU2 1-517): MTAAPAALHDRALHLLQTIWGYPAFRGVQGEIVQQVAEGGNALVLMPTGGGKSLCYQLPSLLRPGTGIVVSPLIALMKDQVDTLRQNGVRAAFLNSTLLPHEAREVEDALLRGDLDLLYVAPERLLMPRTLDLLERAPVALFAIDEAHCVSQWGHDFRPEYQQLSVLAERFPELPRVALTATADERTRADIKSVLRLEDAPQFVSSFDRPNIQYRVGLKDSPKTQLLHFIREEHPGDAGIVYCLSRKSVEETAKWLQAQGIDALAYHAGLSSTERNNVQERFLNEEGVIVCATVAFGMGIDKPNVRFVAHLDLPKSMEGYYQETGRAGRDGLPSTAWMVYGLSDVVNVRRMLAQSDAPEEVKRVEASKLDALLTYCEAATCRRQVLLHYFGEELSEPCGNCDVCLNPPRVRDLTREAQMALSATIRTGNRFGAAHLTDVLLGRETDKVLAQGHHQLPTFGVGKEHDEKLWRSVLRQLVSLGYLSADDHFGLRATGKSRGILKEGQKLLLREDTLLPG
Experiment: X-ray crystallography, […] A
Assay type: binding
Details: crystallised in 0.1 M imidazole pH 7.2, 16% PEG 20K; nucleotide pocket of D1 domain (motifs 0 and I); no magnesium added; authors suggest ADP arose from ATP hydrolysed during crystallization

Nc1ncnc2c1ncn2[C@@H]1O[C@H](COP(=O)(O)OP(=O)(O)O)[C@@H](O)[C@H]1O [ADP]
X-ray crystallography, 2.9 A: ADP is bound with extensive interactions with the protein
